Experimental data from article PMC3001897, “High-Throughput Chemical Screen Identifies a Novel Potent Modulator of Cellular Circadian Rhythms and Reveals CKIα as a Clock Regulatory Kinase” (PLoS Biology, 2010).
“And” between values parts separate entries of the source, which are not always exact repeats. Equal entries are not always repeated.

Tested on: Bmal1-dLuc U2OS cells
Assay: U2OS cell-based circadian assay (Bmal1-dLuc luminescence rhythms)
Parameters: species or system human
Method: The compound screen was done with the high-throughput circadian assay system as described previously. In brief, Bmal1-dLuc U2OS cells were suspended in the culture medium (DMEM supplemented with 10% fetal bovine serum, 0.29 mg/ml L-glutamine, 100 units/ml penicillin, and 100 µg/ml streptomycin) and plated onto 384-well white solid-bottom plates at 20 µl (2,000 cells) per well. After 2 d, 50 µl of the explant medium (DMEM supplemented with 2% B27, 10 mM HEPES, 0.38 mg/ml sodium bicarbonate, 0.29 mg/ml L-glutamine, 100 units/ml penicillin, 100 µg/ml streptomycin, 0.1 mg/ml gentamicin, and 1 mM luciferin, pH 7.2) was dispensed to each well, followed by the application of 500 nl of compounds (dissolved in DMSO; final 0.7% DMSO). The plate was covered with an optically clear film and set to luminescence monitoring system equipped with a CCD imager (ViewLux, Perkin Elmer). The luminescence was recorded every 2 h for 3–4 days. In follow-up studies, the luminescence was recorded every 100 min by using a microplate reader (Infinite M200, Tecan). The period parameter was obtained from the luminescence rhythm by curve fitting program CellulaRhythm or MultiCycle (Actimetrics), both of which gave similar results.

[1] = Bmal1-dLuc U2OS cells, from Figure 1B

SMILES: CC(C)n1cnc2c(NCc3cccc(C(F)(F)F)c3)ncnc21 [Longdaysin, 9-isopropyl-N-(3-(trifluoromethyl)benzyl)-9H-purin-6-amine]
- Period change (lengthening) (10 µM, U2OS cells): > 10 h and 13 h
- Concentration for period change, 5 h [1]: 1.5 µM
- Concentration for period change, 10 h [1]: 5.7 µM
- Concentration for period change, 15 h [1]: 13 µM
- Potency relative to compound 1 (times more potent) (period lengthening): 3 times
- Reversibility of period effect after washout (washout, U2OS cells, mouse fibroblasts, lung (Figure S2)): reversible
